Results reported in patent publication US9271993B2, “Treatment of bacterial infectious diseases” (priority 2010, dated 2016).
≈ marks a conversion by molar mass, not a printed value. Where two headings read alike, the source gives them in different places.

What was measured:
E. coli = assay: MIC against gram-negative bacteria; assay type: cell-based
Description: Agents Chemother. 2003, 47:1496-1502.

[1] = test system: clinical methicillin resistant Staphylococcus aureus (MRSA) isolates; assay: MIC against clinical MRSA isolates, LB microdilution assay
Description: Activity was assessed by determination of minimal inhibitory concentrations (MIC), as described in Pfister et al., Antimicrob. […] Cultures from single colonies were grown in LB medium and used for MIC tests in a microtiter plate format. Starting cultures contained 200 μl of bacterial cells at an optical density of 0.025 at 600 nm, and the respective drug was added in twofold series of dilution.

[2] = test system: Cochlear explants from newborn mice; assay: Cochleatoxicity in vitro, hair cell loss in cochlear explants; assay type: cell-based
Description: FIG. 1: Cochleatoxicity in vitro
(a) Dose-response relationship of drug-induced hair cell loss in cochlear explants. Hair cell loss was quantified along the entire length of the explant and plotted against drug concentration. %=% outer hair cells missing.
Cochlear explants from newborn mice were treated with 0.5 mM aminoglycoside compound for 24 h; subsequently hair cell damage was assessed by epifluorescence microscopy.

bacterial ribosomes = assay: Ribosomal drug susceptibility (MIC) of recombinant bacteria; parameters: MIC, bacterial ribosomes: unit not given beside the values; conditions: for MIC, wild type bacteria: Table 10
mitohybrid ribosomes = assay: as above; parameters: MIC, mitohybrid ribosomes: unit not given beside the values; conditions: for MIC, bacteria with mitohybrid ribosome: Table 10
cytohybrid ribosomes = assay: as above; parameters: MIC, cytohybrid ribosomes: unit not given beside the values; conditions: for MIC, bacteria with cytohybrid ribosome: Table 10
[3] = Escherichia coli, E. coli AG02, clin. isol (Gm^S), read-out: MIC
[4] = Escherichia coli, E. coli AG03, clin. isol (Gm^R), read-out: MIC
[5] = Escherichia coli, E. coli AG06, BM13, read-out: MIC
[6] = Escherichia coli, E. coli AG07, BM13/pIP135, resistance mechanism AAC(3), read-out: MIC
[7] = Escherichia coli, E. coli AG08, BM13/pIP055, resistance mechanism ANT(2″), read-out: MIC
[8] = Escherichia coli, E. coli AG09, AAC(6′)-1B, resistance mechanism AAC(6′), read-out: MIC
[9] = Escherichia coli, E. coli AG36, HB101/pAT197, resistance mechanism ANT(4′), read-out: MIC
[10] = Escherichia coli, E. coli AG37, HB101/pAG21-1, resistance mechanism APH(3′), read-out: MIC
[11] = Staphylococcus aureus, MRSA, MRSA AG038, strain 70-26S Gm^S
[12] = Staphylococcus aureus, MRSA, MRSA AG041, strain 98-25S Gm^S
[13] = Staphylococcus aureus, MRSA, MRSA AG043, strain 01-08R Gm^R
[14] = Staphylococcus aureus, MRSA, MRSA AG044, strain 07-12R Gm^R
[15] = Staphylococcus aureus, MRSA, MRSA AG045, strain 08-12R Gm^R
[16] = Staphylococcus aureus, MRSA, MRSA AG053, strain 56-06R Gm^R

NC[C@@H]1O[C@H](O[C@H]2[C@@H](O)[C@H](O[C@@H]3[C@@H](O)[C@H](N)C[C@H](N)[C@H]3O[C@H]3O[C@H](CO)[C@@H](O)[C@H](O)[C@H]3N)O[C@@H]2CO)[C@H](N)[C@@H](O)[C@@H]1O [Paromomycin]
MIC (E. coli; Escherichia coli, E. coli AG01, clin. isol. (Gm^S), read-out: MIC): 16 to 32 µg/mL (≈ 26 to 52 µM) | MIC (E. coli; [3]): 8 to 16 µg/mL (≈ 13 to 26 µM) | MIC (E. coli; [4]): 8 to 16 µg/mL (≈ 13 to 26 µM) | MIC (E. coli; [5]): 2 µg/mL (≈ 3.25 µM) | MIC (E. coli; [6]): 8 µg/mL (≈ 13 µM) | MIC (E. coli; [7]): 4 to 8 µg/mL (≈ 6.5 to 13 µM) | MIC (E. coli; [8]): 8 to 16 µg/mL (≈ 13 to 26 µM) | MIC (E. coli; [9]): 256 µg/mL (≈ 416 µM) | MIC (E. coli; [10]): > 256 µg/mL | MIC ([1]; MRSA AG040, strain 87-26S Gm^S): >256 µg/mL | MIC ([1]; MRSA AG046, strain 12-06R Gm^R): >256 µg/mL | MIC ([1]; MRSA AG047, strain 18-06R Gm^R): >256 µg/mL | MIC ([1]; MRSA AG048, strain 20-06R Gm^R): >256 µg/mL | MIC ([1]; MRSA AG049, strain 23-12R Gm^R): >256 µg/mL | MIC ([1]; MRSA AG050, strain 31-06R Gm^R): >256 µg/mL | MIC ([1]; MRSA AG051, strain 36-06R Gm^R): >256 µg/mL | MIC ([1]; MRSA AG052, strain 53-14I Gm^R): >256 µg/mL | MIC ([1]; Staphylococcus aureus, MRSA): > 256 µg/mL | MIC [1, 11]: 2 to 4 µg/mL (≈ 3.25 to 6.5 µM) | MIC [1, 12]: 4 µg/mL (≈ 6.5 µM) | MIC [1, 13]: 4 to 8 µg/mL (≈ 6.5 to 13 µM) | MIC [1, 14]: 2 to 4 µg/mL (≈ 3.25 to 6.5 µM) | MIC [1, 15]: 4 µg/mL (≈ 6.5 µM) | MIC [1, 16]: 2 to 4 µg/mL (≈ 3.25 to 6.5 µM)

CN[C@@H]1[C@@H](O)[C@@H](O[C@@H]2[C@@H](O)[C@H](O[C@H]3OC(CN)=CC[C@H]3N)[C@@H](N)C[C@H]2N)OC[C@]1(C)O [Sisomicin]
MIC (E. coli; [3]): 1 µg/mL (≈ 2.23 µM) | MIC (E. coli; [4]): 32 to 128 µg/mL (≈ 71.5 to 286 µM) | MIC (E. coli; [5]): 0.25 µg/mL (≈ 0.559 µM) | MIC (E. coli; [6]): 16 µg/mL (≈ 35.8 µM) | MIC (E. coli; [7]): 8 µg/mL (≈ 17.9 µM) | MIC (E. coli; [8]): 16 µg/mL (≈ 35.8 µM) | MIC (E. coli; [9]): 0.25 µg/mL (≈ 0.559 µM) | MIC (E. coli; [10]): 0.125 µg/mL (≈ 0.279 µM) | MIC [1, 11]: 0.25 µg/mL (≈ 0.559 µM) | MIC ([1]; Staphylococcus aureus, MRSA, MRSA AG040, strain 87-26S Gm^S): 0.25 µg/mL (≈ 0.559 µM) | MIC [1, 12]: 0.25 µg/mL (≈ 0.559 µM) | MIC ([1]; Staphylococcus aureus, MRSA, MRSA AG042, strain 101-06R Gm^R): 32 µg/mL (≈ 71.5 µM) | MIC [1, 13]: 32 to 64 µg/mL (≈ 71.5 to 143 µM) | MIC [1, 14]: 8 µg/mL (≈ 17.9 µM) | MIC [1, 15]: 4 to 8 µg/mL (≈ 8.94 to 17.9 µM) | MIC ([1]; Staphylococcus aureus, MRSA, MRSA AG046, strain 12-06R Gm^R): > 256 µg/mL | MIC ([1]; Staphylococcus aureus, MRSA, MRSA AG047, strain 18-06R Gm^R): > 256 µg/mL | MIC ([1]; Staphylococcus aureus, MRSA, MRSA AG048, strain 20-06R Gm^R): > 256 µg/mL | MIC ([1]; Staphylococcus aureus, MRSA, MRSA AG049, strain 23-12R Gm^R): 8 µg/mL (≈ 17.9 µM) | MIC ([1]; Staphylococcus aureus, MRSA, MRSA AG050, strain 31-06R Gm^R): 128 to 256 µg/mL (≈ 286 to 572 µM) | MIC ([1]; Staphylococcus aureus, MRSA, MRSA AG051, strain 36-06R Gm^R): 64 µg/mL (≈ 143 µM) | MIC ([1]; Staphylococcus aureus, MRSA, MRSA AG052, strain 53-14I Gm^R): 8 µg/mL (≈ 17.9 µM) | MIC [1, 16]: 32 µg/mL (≈ 71.5 µM)

Neomycin
MIC (E. coli; E. coli AG01, clin. isol. (Gm^S)): 8 to 16 µg/mL | MIC (E. coli; E. coli AG02, clin. isol (Gm^S)): 4 µg/mL | MIC (E. coli; E. coli AG03, clin. isol (Gm^R)): 4 µg/mL | MIC (E. coli; E. coli AG06, BM13): 1 µg/mL | MIC (E. coli; E. coli AG07, BM13/pIP135, resistance mechanism AAC(3)): 4 µg/mL | MIC (E. coli; E. coli AG08, BM13/pIP055, resistance mechanism ANT(2″)): 2 to 4 µg/mL | MIC (E. coli; E. coli AG09, AAC(6′)-1B, resistance mechanism AAC(6′)): 8 to 32 µg/mL | MIC (E. coli; E. coli AG36, HB101/pAT197, resistance mechanism ANT(4′)): 32 µg/mL | MIC (E. coli; E. coli AG37, HB101/pAG21-1, resistance mechanism APH(3′)): >256 µg/mL | Hair cell count ([2]; 0.5 mM aminoglycoside for 24 h, epifluorescence microscopy): almost all hair cells (inner and outer) missing | inner and outer hair cells missing / lost ([2]; 0.5 mM, FIG. 1): > 80% | MIC ([1]; MRSA AG038, strain 70-26S Gm^S): 0.5 to 1 µg/mL | MIC ([1]; MRSA AG040, strain 87-26S Gm^S): 128 µg/mL | MIC ([1]; MRSA AG041, strain 98-25S Gm^S): 0.5 to 1 µg/mL | MIC ([1]; MRSA AG042, strain 101-06R Gm^R): 128 µg/mL | MIC ([1]; MRSA AG043, strain 01-08R Gm^R): 1 to 4 µg/mL | MIC ([1]; MRSA AG044, strain 07-12R Gm^R): 0.5 to 1 µg/mL | MIC ([1]; MRSA AG045, strain 08-12R Gm^R): 0.5 to 1 µg/mL | MIC ([1]; MRSA AG046, strain 12-06R Gm^R): >256 µg/mL | MIC ([1]; MRSA AG047, strain 18-06R Gm^R): 256 µg/mL | MIC ([1]; MRSA AG048, strain 20-06R Gm^R): 256 µg/mL | MIC ([1]; MRSA AG049, strain 23-12R Gm^R): >256 µg/mL | MIC ([1]; MRSA AG050, strain 31-06R Gm^R): 64 µg/mL | MIC ([1]; MRSA AG051, strain 36-06R Gm^R): 64 µg/mL | MIC ([1]; MRSA AG052, strain 53-14I Gm^R): >256 µg/mL | MIC ([1]; MRSA AG053, strain 56-06R Gm^R): 0.5 to 1 µg/mL | MIC, bacterial ribosomes (bacterial ribosomes; Table 7, 72 h incubation): 1 | MIC, mitohybrid ribosomes (mitohybrid ribosomes; Table 7, 72 h incubation): 32 | MIC, cytohybrid ribosomes (cytohybrid ribosomes; Table 7, 72 h incubation): 1024

CC(=O)O.CC(=O)O.CC(=O)O.CC(=O)O.CNC1C(OC2OC(CO)C(N)C(O)C2O)OC2CC(N)C(OC3C(N)CC(NC(=O)C(O)CCN)C(O)C3O)OC2C1O [ETH 102, 1-N-[(2S)-4-Amino-2-hydroxybutyryl]apramycin tetraacetate]
MIC, wild type bacteria (bacterial ribosomes): 4.0 µg/mL | MIC, bacteria with mitohybrid ribosome (mitohybrid ribosomes): >256.0 µg/mL | MIC, bacteria with cytohybrid ribosome (cytohybrid ribosomes): >256.0 µg/mL

CNC1C(OC2OC(CO)C(NC(=O)C(O)CCN)C(O)C2O)OC2CC(N)C(OC3C(N)CC(N)C(O)C3O)OC2C1O [ETH 105, 4″-N-[(2S)-4-Amino-2-hydroxybutyryl]apramycin]
MIC, wild type bacteria (bacterial ribosomes): 4.0 µg/mL | MIC, bacteria with mitohybrid ribosome (mitohybrid ribosomes): >256.0 µg/mL | MIC, bacteria with cytohybrid ribosome (cytohybrid ribosomes): >256.0 µg/mL
